Results from patent US5688789A, “PCP receptor ligands and the use thereof” (State of Oregon, acting by and through the Oregon State …, priority 1995, dated 1997).

Tests used:
PCP receptor [1] = assay: PCP receptor affinity of IDDC analogs vs. [3H]MK-801 in rat brain membrane (Example 10, Table 2); settings: read-out: PCP Receptor Affinity IC50 in Rat Brain Membrane vs. [3H]MK-801, MEAN
PCP receptor [2] = assay: PCP receptor binding against 3H-MK-801 (Example 5, Table 1); settings: for IC50: vs. 3H-MK-801, ± sem (n)
Method: The PCP receptor binding properties of various compounds of the invention against ^3 H-5-methyl-10,11-dihydro-5H-dibenzo[a,d]cycloheptene-5,10-imine (^3 H-MK-801) were determined.

rat hippocampal cells = assay: In vitro neurotoxicity assay: protection against glutamate, Trypan Blue survival count (Example 7); assay type: cell-based; settings: glutamate 0-1000 uM, 1 uM glycine
Method: In the cytotoxicity studies, cultured mammalian neurons expressing EAA receptors are exposed in vitro to glutamate and the particular compound under investigation. The survival percentage of cells indicates the ability of the compound to protect against glutamate-induced neuronal death.
Dissociated rat hippocampal cultures were prepared using a modification of the method of Huettner and Baughman [Huettner, J. E. and Baugham, R. W., J. Neurosci. 6:3044-3060 (1986)]. The cortices were removed from 1-3 day post-natal rats (Sprague-Dawley) that had been anesthetized with chloral hydrate, and the hippocampi were dissected out and placed in Cl^- free dissociation medium supplemented with 1 mM kynurenic acid and 10 mM MgSO4 (Choi, D. W., J. Neurosci. 7:369-379 (1987)). The hippocampi were washed in the dissociation medium, then incubated for 2×20 minutes at 37° C. in dissociation medium containing 10 units/ml of Papain (Worthington). After the enzyme treatment, the tissue was incubated for three 5-minute periods at 37° C. with 10 mg/ml trypsin inhibitor (Sigma type II-0).
The cells were dissociated by trituration in growth medium and plated as 0.15 ml droplets of cell suspension onto the center of 35 mm Primaria (Falcon) dishes that had been stamped with a labeled 26×26 grid of approximately 0.64 cm^2 total area using a Mecanex BB form (WPI, New Haven, Conn.) and coated with poly-D-lysine and laminin (Collaborative Research). The cell density was between 2.5 and 4.0×10^5 cells per dish. The growth medium was Eagles minimum essential media (MEM, Earle's salts) supplemented with 5% fetal bovine serum (CCL), 5% defined supplemented calf serum (HyClone), 50 mM glucose, 50 units/ml penicillin/streptomycin and MITO+serum extender (Collaborative Research). The cells were maintained at 37° C. in a humidified 4.5% CO2 atmosphere. […]
Before treatment, sister cultures were examined under phase-contrast microscopy to ensure that the cultures were of a similar density. […] The cultures were washed three times and the surviving cells counted in the grid area using phase contrast microscopy. […]

[3] = system: NMDA receptor-ion channel complex; assay: Whole-cell patch clamp: block of NMDA-induced currents on cultured rat hippocampal neurons (Example 6); assay type: cell-based; settings: for inward current on serial applications with NMDA: 10 uM compound with NMDA; for recovery from inhibition of NMDA current: after 10 uM compound
Method: In the electrophysiological studies the compounds are evaluated with respect to their ability to block the ion channel of the NMDA receptor channel complex and thereby inhibit Ca^2+ and Na^+ ion flow into the nerve cell. Initially, the ion channels are opened by activating the NMDA receptor. Ion flow is determined by measuring the passage of electrical current, i.e., a use-dependent decrease in electrical current indicates blocking of the ion channel due to binding of a ligand at a site within the channel.
Hippocampal neurons were obtained from the CA1 region of the hippocampus from 1-3 day-old-newborn rats (Long-Evans). Small blocks of tissue ([…]1mm^3) were incubated in papain (20 units ml^-1; Worthington-Cooper) for 30 minutes. The tissue was dissociated into a single cell suspension by trituration with a fire-polished Pasteur pipette in complete growth medium (Earle's MEM, 20 mM glucose, 50 units/ml penicillin/streptomycin, 5% heat-inactivated fetal calf serum, Serum Extender from Collaborative Research) containing 2.5 mg/ml bovine serum albumin and 2.5 mg/ml trypsin inhibitor (Sigma). The cells were plated onto glass coverslips coated with collagen/poly-D-lysine. Cultures were fed every 3 days by replacing haft the volume of medium. Arabinosylcytosine (5×10^-6 M) was added to the cultures for 1 or 2 days during the first week after plating to suppress the proliferation of non-neuronal cells.
All electrophysiology experiments were performed with the whole-cell mode of patch clamp recording [Hamill, O. D., Marty, A., Neher, E., Sakman, B., and Sigworth, F. J., Pflugers Arch. 391:85-100 (1981)] from neurons grown for 1-3 weeks in culture. Agonists and agonist/antagonist combinations were applied by a U-tube mol (Fenwick et al, J. Physiol. 331:577-597 (1982)) to neurons in whole-cell experiments. The external solution contained (in mM) NaCl 140, KCl 3.5, CaCl2 1, glucose 5, picrotoxinin 0.02, tetrodotoxin (TTX) 5×10^-4, and N-2-hydroxyethyl-piperazine-N'-2-ethanesulfonic acid (HEPES) 10. The pH of this solution was adjusted to 7.4 with NaOH. The internal (patch electrode) solution contained (mM) Cs-methanesulfonate 120, CsCl 10, ethyleneglycol-bis-(β-aminoethylether)-N,N,N',N'-tetraacetic acid (EGTA) 10, HEPES 10 (pH adjusted to 7.0 with CsOH). Membrane current was filtered at 4000 Hz (-3dB; 8-pole Bessel) and recorded on magnetic tape for later analysis. Experiments were performed at room temperature (20°-25° C.). [Sources of chemicals: N-methyl-D-aspartate, Cambridge Research Biochemicals; pirotoxinin, Sigma Chemical Company; salts for recording solutions, Aldrich (Gold Label) or Alfa (Puratronic). [^3 H]Kainate and [3H]CPP and [^3 H]AMPA were purchased from Dupont/NEN (Boston, Mass.)].
Repetitive applications (every 30 s) to the same cell produced currents which varied less than 5% over a period of at least 30 minutes.

[4] = system: lesions caused by NMDA injection; assay: In vivo neurotoxicity assay: protection against lesions caused by cerebral NMDA injection (Example 8); settings: about 0.30 to 60 μMol/kg, intraperitoneal, 15 minutes following cerebral NMDA injection
From the text: In the in vivo neurotoxicity studies, the experimental model of McDonald, D. W., et al., (In: Sigma and Phencyclidine-like Compounds as Molecular Probes in Biology, Ed. Domino, E. F., and Kamenka, J.-M., pp. 697-707 (1988), NPP Books, Ann Arbor, Mich.) may be employed. In this model, NMDA injection into one cerebral hemisphere causes injury which resembles the lesion produced by hypoxia-ischemia. The ability of compounds to limit the NMDA-induced lesion is a measure of their neuroprotective properties; since the compounds may be administered intraperitoneally, the model can also provide information about a compound's ability to cross the blood-brain barrier.
The experimental model of McDonald, J. W., et al., supra, was employed with the single alteration in protocol of an intraperitoneal injection of the test compound 15 minutes following, rather than preceding, the cerebral NMDA injection.

## CC12CNC(Cc3ccccc31)c1ccccc12 (racemic) [(±)-5-Me-IDDC, 5-methyl-10,5-(iminomethano)-10,11-dihydro-5H-dibenzo[a,d]cycloheptene]
PCP receptor [1]
  IC50: 119 nM
PCP receptor [2]
  IC50: 125 nM

## c1ccc2c(c1)CC1NCC2c2ccccc21 (racemic) [(±)-IDDC, (±) 10,5-(iminomethano)-10,11-dihydro-5H-dibenzo[a,d]cycloheptene]
PCP receptor [1]
  IC50: 74.6 nM
Rat hippocampal cells; 5 uM
  cell survival compared to control: enhanced cell survival when compared to control values
PCP receptor [2]
  IC50: 41 ± 6 nM

## CC12NC(Cc3ccccc31)c1ccccc12 (single isomer, unassigned) [MK-801, 5-methyl-10,11-dihydro-5H-dibenzo[a,d]cycloheptene-5,10-imine, reference compound]
[3]
  inward current on serial applications with NMDA: the inward current became progressively smaller with serial applications
  recovery from inhibition of NMDA current: required repeated applications of NMDA alone and was speeded by holding the membrane potential at positive voltages

## CN1CC2c3ccccc3CC1c1ccccc12 (single isomer, unassigned) [N-methyl IDDC, N-methyl-10,5-(iminomethano)-10,11-dihydro-5H-dibenzo[a,d]cycloheptene]
Rat hippocampal cells; 10 uM
  cell survival compared to control: enhanced cell survival when compared to control values

## c1ccc2c(c1)C[C@H]1NC[C@@H]2c2ccccc21 [(+)-IDDC, (+)-10(R),5(S)-(iminomethano)-10,11-dihydro-5H-dibenzo[a,d]cycloheptene]
PCP receptor [1]
  IC50: 40 nM
[4]
  protection against lesions caused by NMDA injection: protect against the lesions caused by NMDA injection
Rat hippocampal cells; 5 uM
  cell survival compared to control: enhanced cell survival when compared to control values
PCP receptor [2]
  IC50: 40 ± 5 nM
[3]; rat hippocampal neurons, compared with MK-801
  use-dependent blockage of NMDA-induced (+glycine) responses: very similar to the use dependent blocking action exhibited by MK-801

## CN1C[C@H]2c3ccccc3C[C@@H]1c1ccccc12 [(+)-N--Me-IDDC, N-methyl-10,5-(iminomethano)-10,11-dihydro-5H-dibenzo[a,d]cycloheptene]
PCP receptor [1]
  IC50: 65.4 nM
PCP receptor [2]; relative to MK-801
  affinity for the PCP receptor compared with MK-801: lower affinity than MK-801 for the PCP receptor
PCP receptor [2]
  IC50: 800 ± 9 nM
[3]
  inward current on serial applications with NMDA: Serial applications evoked progressively smaller currents
  recovery from inhibition of NMDA current: reversed only with prolonged or repeated application of NMDA
[3]; 10 uM, relative to MK-801
  rate of recovery from blockade compared with MK-801: somewhat more rapid than the rate of recovery of responses following MK-801
[3]; 10 uM, 50 uM NMDA + 1 uM glycine, -60 mV
  inhibition of NMDA current: inhibited the NMDA current in a use-dependent and voltage-dependent manner

## CN[C@H](CC(=O)O)C(=O)O [NMDA, N-methyl-D-aspartate, reference compound]
[3]; 50 uM NMDA + 1 uM glycine, three second applications, -60 mV
  inward whole-cell current: 100-1000 pA
